“Also recorded” adds a separate entry of the source. Like-named read-outs stand apart in the source and are kept apart here. Each block holds one substance with its values, some of them ahead of it.
What was measured:
[1] = tested on: G1, HepG2, and A431 cells; assay: Flow cytometry, binding compared across A431, G1 and HepG2 cells; format: cell-based, human; settings: 1 h, n = 3
Protocol: (§1) A431, a human epidermoid carcinoma GPC3^− cell line, and A431-GPC3^+ (G1), a transfected A431 cell line engineered to stably express human GPC3, were both obtained from Dr. M.H. (National Cancer Institute, Bethesda, MD).[12] HepG2 (GPC3^+ liver cancer cell line) was obtained from ATCC (Manassas, VA). All cell lines were cultured in DMEM (Life Technologies, Carlsbad, CA) supplemented with 10% FetaPlex (Gemini Bio-Products, West Sacramento, CA) according to supplier's protocols. All cell lines tested negative for mycoplasma in monthly tests and were used for experiments within 10 passages (HepG2) or 15 passages (A431 and G1).
(§2) Approximately 1 × 10^6 cells per sample tube were harvested, washed once with ice-cold staining buffer (1% bovine serum albumin in 1 × phosphate buffered saline [PBS]), and resuspended in 60 μL staining buffer. Cells were then distributed into control and experimental vials. Unstained and single-color control samples were made. Experimental samples were stained with PE-conjugated anti-GPC3 antibody (R&D Systems, Minneapolis, MN), PE-conjugated IgG2 isotype control (Biolegend, San Diego, CA), conjugated specific or nonspecific peptide and incubated for 1–2 h on ice in the dark. Data were collected using a BD FACSCalibur cytometer running BD CellQuest Pro software (v6.0), and results were analyzed with FlowJo (v10.4.2). All experiments represent biological replicates (n = 3).

GPC3 [2] = settings: cited from earlier work
Text: Table 1. […] Several full-length antibodies, antibody fragments, and peptides for imaging and/or therapeutic use have been developed for GPC3 with varying degrees of success (Table 1).[8–17] […] To rule out the possibility that fluorophore modification of TJ12P1 interfered with its abil ... || (+ 2 further places)

Solubility assays = format: physicochemical
Protocol: (§3) Solubility assays were performed to determine the most compatible solvent for both peptides before in vitro evaluation of GPC3 binding, favoring aqueous solvents over cytotoxic organic solvents such as dimethylformamide (DMF) and dimethyl sulfoxide (DMSO).
FIG. 1. Cy5.5-conjugated TJ12P1 is peptide insoluble in aqueous buffer. Bright field images of Cy5.5-TJ12P1 peptides in solution. In (A, B), peptide Cy5.5-TJ12P1 is undissolved in 20% DMSO/80% ddH2O and 100% ddH2O at 0.3 mg/mL, respectively. DMSO, dimethyl sulfoxide.

human GPC3 = biological target: T1, human GPC3 (Homo sapiens, UniProt P51654); assay: Biolayer interferometry to immobilized recombinant biotinylated GPC3; format: binding; settings: unlabeled peptide, 1 × PBS with 0.02% Tween-20
T1 construct: biotin (biotinylated); purchased Acro Biosystems
T1 sequence (P51654 25-580): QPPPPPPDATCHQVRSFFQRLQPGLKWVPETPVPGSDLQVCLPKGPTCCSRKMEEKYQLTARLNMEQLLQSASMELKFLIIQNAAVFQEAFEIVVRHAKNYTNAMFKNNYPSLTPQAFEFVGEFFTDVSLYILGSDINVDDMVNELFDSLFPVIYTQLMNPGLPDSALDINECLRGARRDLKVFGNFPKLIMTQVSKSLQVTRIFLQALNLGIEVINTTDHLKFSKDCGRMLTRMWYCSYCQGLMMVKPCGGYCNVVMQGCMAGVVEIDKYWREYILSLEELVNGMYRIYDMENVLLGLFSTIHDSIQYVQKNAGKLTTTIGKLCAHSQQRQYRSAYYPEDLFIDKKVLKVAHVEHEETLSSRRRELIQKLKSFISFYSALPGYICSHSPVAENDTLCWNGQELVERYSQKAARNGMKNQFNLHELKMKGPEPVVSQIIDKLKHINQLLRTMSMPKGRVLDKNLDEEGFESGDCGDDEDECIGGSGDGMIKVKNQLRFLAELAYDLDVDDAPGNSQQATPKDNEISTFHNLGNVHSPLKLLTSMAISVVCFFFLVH
Protocol: (§4) Biotinylated human GPC3 protein (Acro Biosystems, Newark, DE) was diluted to 5 μg/mL in assay buffer (1 × PBS with 0.02% Tween-20) in a 96-well plate and loaded onto streptavidin biosensors (FortéBio, Menlo Park, CA). Each unconjugated peptide was diluted in assay buffer at four concentrations (1000, 500, 250, and 125 nM for TJ12P1; and 500, 250, 125, and 62.5 nM for KKK-L5) and loaded into the 96-well plate in a final volume of 200 μL. Specific and nonspecific binding wells were made for each concentration. The plate was run on an Octet Red96 system (FortéBio) and analyzed with FortéBio Octet Data Analysis software (v.11).

GPC3 [3] = assay: Cell-based and cell-free GPC3 binding assays, overall result; set-up: species or system human; settings: for specific binding (overall): concentrations in the range of their reported KD; for selectivity for GPC3 (overall): concentrations near the reported KD; for binding to GPC3 (overall): fluorescently labeled and unlabeled versions, concentrations in the range of their published KD (0.3–1 μM)
Protocol: as §2, §4

[4] = biological target: Glypican 3 (Homo sapiens) (UniProt P51654); settings: cited from earlier work
Sequence of Glypican 3 (Homo sapiens) (P51654 359-554): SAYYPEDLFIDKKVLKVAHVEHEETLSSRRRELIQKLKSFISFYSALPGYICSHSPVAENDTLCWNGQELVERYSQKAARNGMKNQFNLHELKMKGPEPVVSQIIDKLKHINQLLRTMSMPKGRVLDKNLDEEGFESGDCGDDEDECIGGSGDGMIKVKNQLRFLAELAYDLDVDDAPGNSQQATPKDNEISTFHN

[5] = biological target: Glypican 3 (Homo sapiens) (UniProt P51654); assay: surface plasmon resonance; settings: cited from earlier work
[6] = Hydrophobic residue content
[7] = cited from earlier work
Protocol: as §3, with “(DMSO). […] Sonication and vortexin ... || This study has a few limitations.” for “(DMSO).”

HepG2 cells = assay: Flow cytometry, HepG2 (GPC3-positive) cells; format: cell-based; settings: 300 nM, 1 h, n = 3
Protocol: as §1
as §2, with “All experiments represent biological replicates (n = 3).” left out

Substance: Sulfo-Cy5-WLSHLGDLTWEA [sulfo-Cy5-TJ12P1 scrambled peptide, sulfo-Cy5-labeled scrambled variant of TJ12P1]
binding compared to sulfo-Cy5-TJ12P1 ([1]; 325 nM, all GPC3+ cell lines (G1, HepG2), flow cytometry, p = 0.02): significantly increased binding in all GPC3^+ cell lines

solubility (Solubility assays; aqueous solution, record 2): poor solubility in aqueous solutions
KD by BLI (human GPC3; 125–1000 nM): no KD could be calculated
Substance: DHLASLWWGTEL [TJ12P1]
Kd (GPC3 [2]; with Cy5.5, ref [9] (Zhu et al.)): 390 nM
solubility (Solubility assays; aqueous solution): poor solubility in aqueous solution
BLI concentration-dependent binding to GPC3 (human GPC3; 125–1000 nM, recombinant biotinylated human GPC3 on streptavidin biosensors): failed to demonstrate concentration-dependent binding behavior
specific binding (overall) (GPC3 [3]): do not bind specifically
selectivity for GPC3 (overall) (GPC3 [3]): neither TJ12P1 nor L5 variant demonstrates selectivity for GPC3
binding to GPC3 (overall) (GPC3 [3]): neither fluorescently labeled nor unlabeled versions tested can bind to GPC3

Substance: TJ12P1
Kd [4]: 390 nM

Substance: Sulfo-Cy5-KKKRLNVGGTYFLTTRQ [sulfo-Cy5-KKK-L5, sulfo-Cy5-conjugated KKK-L5]
solubility (Solubility assays; ddH2O, 0.5 mg/mL): soluble in ddH2O
binding, A431 vs HepG2 and G1 (histogram shift) ([1]; 300 nM, flow cytometry): bound nonspecifically to GPC3, as the observed histogram shift is identical in the A431 (GPC3^−) and the HepG2 and G1 (GPC3^+) cells

Substance: L5
Kd [5]: 44.7 nM

solubility (Solubility assays; aqueous solution): poor solubility in aqueous solutions
hydrophobic residues, share of sequence ([6]; four out of the 14 residues): 28.5%
hydrophobic residues, number ([6]; out of the 14 residues): Four
Substance: RLNVGGTYFLTTRQ [L5, previously published GPC3-targeting peptide; original L5 not evaluated in this study, reference compound]
solubility ([7]; original L5 peptide, as reported in literature): poor solubility
binding to GPC3 (overall) (GPC3 [3]): neither fluorescently labeled nor unlabeled versions tested can bind to GPC3

Substance: hGC33: published anti-GPC3 targeting moiety, humanized
Kd (GPC3 [2]; humanized: Yes, ref [16]): 0.67 nM

Substance: Sulfo-Cy5-DHLASLWWGTEL [sulfo-Cy5-TJ12P1, sulfo-Cy5-labeled variant of TJ12P1]
solubility (Solubility assays; 0.15 M NH4OAc): appeared to be soluble
binding, G1 vs HepG2 vs A431 ([1]; 325 nM, flow cytometry): no significant difference in binding between G1, HepG2, and A431 cells; also recorded: nonspecific association of TJ12P1 to all cell lines

solubility (Solubility assays; ddH2O, 0.5 mg/mL): soluble in ddH2O
KD by BLI (human GPC3; 62.5–500 nM): no KD could be calculated
Substance: KKK-RLNVGGTYFLTTRQ [KKK-L5, variant of the L5 peptide with three lysine residues]
BLI binding to GPC3 (human GPC3; 62.5–500 nM, recombinant biotinylated human GPC3 on streptavidin biosensors): absence of specific binding to GPC3; also recorded: failed to demonstrate concentration-dependent binding behavior
solubility ([7]; aqueous solution, compared to the original L5 peptide, ref [23] (Han et al.)): higher solubility in aqueous solution
specific binding (overall) (GPC3 [3]): do not bind specifically
selectivity for GPC3 (overall) (GPC3 [3]): neither TJ12P1 nor L5 variant demonstrates selectivity for GPC3

Substance: Sulfo-Cy5-KKKYTRFLGTVGNRLTQ [sulfo-Cy5-KKK-L5 scramble, sulfo-Cy5-labeled scrambled variant of KKK-L5]
binding (MFI) compared to specific peptide (sulfo-Cy5-KKK-L5) ([1]; 300 nM, all three cell lines, p < 0.05): more binding; also recorded: binds better to all cell lines than the specific peptide
difference in staining compared to sulfo-Cy5-KKK-L5 (HepG2 cells; high-staining HepG2 population (Hi), p < 0.001): statistically significant
difference in staining compared to sulfo-Cy5-KKK-L5 (HepG2 cells; low-staining HepG2 population (Lo), p < 0.005): statistically significant

Substance: WLSHLGDLTWEA [TJ12P1 scramble, scrambled variant of TJ12P1, nonspecific control]
binding (MFI) compared to specific peptide (sulfo-Cy5-TJ12P1) ([1]; 325 nM, all cell lines tested, p < 0.05): more binding to all cell lines tested
